This passage reports inhibition results from patent US20090197880A1 (Genelabs Technologies, Inc., priority 2007, published 2009).

SMILES strings stand for the structures.

One experiment can be described thus: HCV replicon assay (luciferase) in ET (Huh-lucubineo-ET) cell line. In kind it is cell-based. The note with it: Hepatitis C virus; tested at 5 μM; inhibition of replication relative to no compound control; ET replicon cells, luciferase 48-72 hours. From the text: A cell line, ET (Huh-lucubineo-ET) was used for screening of compounds, or pharmaceutically acceptable salts or solvates, described herein for inhibition of HCV RNA dependent RNA polymerase. The ET cell line was stably transfected with RNA transcripts harboring a I389luc-ubi-neo/NS3-3′/ET; replicon with firefly luciferase-ubiquitin-neomycin phosphotransferase fusion protein and EMCV-IRES driven NS3-5B polyprotein containing the cell culture adaptive mutations (E1202G; T1280I; K1846T) (Krieger at al, 2001 and unpublished). The ET cells were grown in DMEM, supplemented with 10% fetal calf serum, 2 mM Glutamine, Penicillin (100 IU/mL)/Streptomycin (100 μg/mL), 1× nonessential amino acids, and 250 μg/mL G418 (“Geneticin”). They were all available through Life Technologies (Bethesda, Md.). The cells were plated at 0.5−1.0×10^4 cells/well in the 96 well plates and incubated for 24 hrs before adding the test compounds. […] Luciferase activity was measured 48-72 hours later by adding a lysis buffer and the substrate (Catalog number Glo-lysis buffer E2661 and Bright-Glo luciferase system E2620 Promega, Madison, Wis.). Cells should not be too confluent during the assay. Percent inhibition of replication was plotted relative to no compound control. Under the same condition, cytotoxicity of the compounds was determined using cell proliferation reagent, WST-1 (Roche, Germany). The compounds showing antiviral activities, but no significant cytotoxicities were chosen to determine the EC50 and TC50, the effective concentration and toxic concentration at which 50% of the maximum inhibition is observed. For these determinations, 6 dilutions of each compound were used. Compounds were typically diluted 3 fold to span a concentration range of 250 fold. EC50 and similarly TC50 values were calculated by fitting % inhibition at each concentration to the following equation:
% inhibition=100%/[(EC50/[I])^b+1]
where b is Hill's coefficient.
(In general: A replicon is a self-replicating genome or part of one, used to study replication in cells.)
As to `Fc1ccccc1-c1nc2cnn(Cc3cc(-c4ccc(Cl)cc4)no3)cc-2n1` [Compound 116, 5-[3-(4-Chloro-phenyl)-isoxazol-5-ylmethyl]-2-(2-fluoro-phenyl)-5H-imidazo[4,5-d]pyridazine], the inhibition at 5 µM stood at 92.1%.

The same experiment, now with this note: Hepatitis C virus; tested at 10 μM; inhibition of replication relative to no compound control; ET replicon cells, luciferase 48-72 hours; read-out: % inhition at 10 μM.
Turning to `Fc1cccc(-c2nc3cnn(Cc4cc(-c5ccc(OCC6CCOC6)cc5C(F)(F)F)no4)cc-3n2)c1F` (stereo not shown) [Compound 329, 2-(2,3-Difluoro-phenyl)-5-{3-[4-(tetrahydro-furan-3-ylmethoxy)-2-trifluoromethyl-phenyl]-isoxazol-5-ylmethyl}-5H-imidazo[4,5-d]pyridazine], the inhibition at 10 µM was 99.5%.
For `Fc1ccccc1-c1nc2cnn(Cc3cc(-c4ccc(Cl)cc4)no3)cc-2n1` [Compound 116, 5-[3-(4-Chloro-phenyl)-isoxazol-5-ylmethyl]-2-(2-fluoro-phenyl)-5H-imidazo[4,5-d]pyridazine], the inhibition at 10 µM was 92.8%.
For the compound `Fc1cccc(-c2nc3cnn(Cc4cc(-c5ccc(C(F)(F)F)nc5)no4)cc-3n2)c1F` [Compound 205, 2-(2,3-Difluoro-phenyl)-5-[3-(6-trifluoromethyl-pyridin-3-yl)-isoxazol-5-ylmethyl]-5H-imidazo[4,5-d]pyridazine], the inhibition at 10 µM amounted to 98.7%.
On the same count and under the same terms, to `Fc1ccccc1-c1nc2cnn(Cc3nnc(-c4ccc(Cl)cc4)o3)cc-2n1` [Compound 291, 5-[5-(4-Chloro-phenyl)-[1,3,4]oxadiazol-2-ylmethyl]-2-(2-fluoro-phenyl)-5H-imidazo[4,5-d]pyridazine] belongs 22.5%.
`CN1CCN(c2ccc(-c3cc(Cn4cc5nc(-c6cccc(F)c6F)nc-5cn4)on3)cc2)CC1` [Compound 194, 2-(2,3-Difluoro-phenyl)-5-{3-[4-(4-methyl-piperazin-1-yl)-phenyl]-isoxazol-5-ylmethyl}-5H-imidazo[4,5-d]pyridazine]: the inhibition at 10 µM came to 57.5%.
In the case of `Fc1cccc(-c2nc3cnn(Cc4cc(-c5ccc(-c6cn[nH]c6)cc5C(F)(F)F)no4)cc-3n2)c1F` [Compound 322, 2-(2,3-Difluoro-phenyl)-5-{3-[4-(1H-pyrazol-4-yl)-2-trifluoromethyl-phenyl]-isoxazol-5-ylmethyl}-5H-imidazo[4,5-d]pyridazine], the inhibition at 10 µM turned out to be 94.9%.
Turning to `CN(C)CCCOc1ccc(-c2cc(Cn3cc4nc(-c5cccc(F)c5F)nc-4cn3)on2)cc1` [Compound 216, [3-(4-{5-[2-(2,3-Difluoro-phenyl)-imidazo[4,5-d]pyridazin-5-ylmethyl]-isoxazol-3-yl}-phenoxy)-propyl]-dimethyl-amine], the inhibition at 10 µM came out at 79.1%.
As to `CC(=O)c1ccc(-c2cc(Cn3cc4nc(-c5cccc(F)c5F)nc-4cn3)on2)cc1` [Compound 290, 1-(4-{5-[2-(2,3-Difluoro-phenyl)-imidazo[4,5-d]pyridazin-5-ylmethyl]-isoxazol-3-yl}-phenyl)-ethanone], the inhibition at 10 µM came to 95.2%.
Turning to `Fc1cccc(-c2nc3cnn(Cc4cc(-c5ccc(OCC6CCOCC6)cc5C(F)(F)F)no4)cc-3n2)c1F` [Compound 319, 2-(2,3-Difluoro-phenyl)-5-{3-[4-(tetrahydro-pyran-4-ylmethoxy)-2-trifluoromethyl-phenyl]-isoxazol-5-ylmethyl}-5H-imidazo[4,5-d]pyridazine], the inhibition at 10 µM was found to be 100%.
Consider `Fc1cccc(-c2nc3cnn(Cc4cc(-c5cc(C(F)(F)F)cc(C(F)(F)F)c5)no4)cc-3n2)c1F` [Compound 164, 5-[3-(3,5-Bis-trifluoromethyl-phenyl)-isoxazol-5-ylmethyl]-2-(2,3-difluoro-phenyl)-5H-imidazo[4,5-d]pyridazine], for which the inhibition at 10 µM is 90.1%.
Turning to `Fc1ccccc1-c1nc2cnn(Cc3cc(-c4cccc(C(F)(F)F)c4)no3)cc-2n1` [Compound 276, 2-(2-Fluoro-phenyl)-5-[3-(3-trifluoromethyl-phenyl)-isoxazol-5-ylmethyl]-5H-imidazo[4,5-d]pyridazine], the inhibition at 10 µM is 60%.
With `CC(C)Cc1ccc(-c2cc(Cn3cc4nc(-c5cccc(F)c5F)nc-4cn3)on2)cc1` [Compound 190, 2-(2,3-Difluoro-phenyl)-5-[3-(4-isobutyl-phenyl)-isoxazol-5-ylmethyl]-5H-imidazo[4,5-d]pyridazine], the inhibition at 10 µM worked out at 99.9%.
With `O=C(O)c1cccc(COc2ccc(-c3cc(Cn4cc5nc(-c6cccc(F)c6F)nc-5cn4)on3)cc2)c1` [Compound 159, 3-(4-{5-[2-(2,3-Difluoro-phenyl)-imidazo[4,5-d]pyridazin-5-ylmethyl]-isoxazol-3-yl}-phenoxymethyl)-benzoic Acid], the inhibition at 10 µM turned out to be 49.4%.
`Fc1cccc(-c2nc3cnn(Cc4cc(-c5ccc(OC(F)(F)C(F)C(F)(F)F)cc5)no4)cc-3n2)c1F` (stereo not shown) [Compound 170, 2-(2,3-Difluoro-phenyl)-5-{3-[4-(1,1,2,3,3,3-hexafluoro-propoxy)-phenyl]-isoxazol-5-ylmethyl}-5H-imidazo[4,5-d]pyridazine]: the inhibition at 10 µM worked out at 97.9%.
As for `Fc1ccc(F)c(-c2nc3cnn(Cc4cc(-c5ccc(C(F)(F)F)cc5C(F)(F)F)no4)cc-3n2)c1` [Compound 299, 5-[3-(2,4-Bis-trifluoromethyl-phenyl)-isoxazol-5-ylmethyl]-2-(2,5-difluoro-phenyl)-5H-imidazo[4,5-d]pyridazine], the inhibition at 10 µM turned out to be 79.3%.
Same read-out and setting: to `FC(F)(F)c1ccc(-c2cc(Cn3cc4nc(N5Cc6ccccc6C5)nc-4cn3)on2)c(C(F)(F)F)c1` [Compound 261, 5-[3-(2,4-Bis-trifluoromethyl-phenyl)-isoxazol-5-ylmethyl]-2-(1,3-dihydro-isoindol-2-yl)-5H-imidazo[4,5-d]pyridazine] belongs 73.9%; to `CCCOc1cnc(-c2cc(Cn3cc4nc(-c5cccc(F)c5F)nc-4cn3)on2)cn1` [Compound 315, 2-(2,3-Difluoro-phenyl)-5-[3-(5-propoxy-pyrazin-2-yl)-isoxazol-5-ylmethyl]-5H-imidazo[4,5-d]pyridazine], 99.3%; to `COc1ccc(-c2cc(Cn3cc4nc(-c5cccc(F)c5F)nc-4cn3)on2)c(C(F)(F)F)c1` [Compound 174, 2-(2,3-Difluoro-phenyl)-5-[3-(4-methoxy-2-trifluoromethyl-phenyl)-isoxazol-5-ylmethyl]-5H-imidazo[4,5-d]pyridazine], 99.7%.
On the same count and under the same terms, the result for `CCCCc1ccc(-c2cc(Cn3cc4nc(-c5cccc(F)c5F)nc-4cn3)on2)c(F)c1` [Compound 303, 5-[3-(4-Butyl-2-fluoro-phenyl)-isoxazol-5-ylmethyl]-2-(2,3-difluoro-phenyl)-5H-imidazo[4,5-d]pyridazine] reads 99.8%; that for `Fc1cccc(-c2nc3ccn(Cc4cc(-c5ccc(C(F)(F)F)cc5C(F)(F)F)no4)nc-3n2)c1F` [Compound 245, 2-[3-(2,4-Bis-trifluoromethyl-phenyl)-isoxazol-5-ylmethyl]-6-(2,3-difluoro-phenyl)-2H-imidazo[4,5-c]pyridazine], 72.8%; that for `COc1ccc(-c2noc(Cn3cc4nc(-c5cccc(F)c5F)nc-4cn3)n2)cc1` [Compound 228, 2-(2,3-Difluoro-phenyl)-5-[3-(4-methoxy-phenyl)-[1,2,4]oxadiazol-5-ylmethyl]-5H-imidazo[4,5-d]pyridazine], 40.8%.
As to `Fc1cccc(-c2nc3ccn(Cc4cc(-c5ccc(C(F)(F)F)cc5)no4)nc-3n2)c1F` [Compound 246, 6-(2,3-Difluoro-phenyl)-2-[3-(4-trifluoromethyl-phenyl)-isoxazol-5-ylmethyl]-2H-imidazo[4,5-c]pyridazine], the inhibition at 10 µM was 62.1%.
As for `FC(F)(F)c1ccc(-c2cc(Cn3cc4nc(-c5ccco5)nc-4cn3)on2)c(C(F)(F)F)c1` [Compound 142, 5-[3-(2,4-Bis-trifluoromethyl-phenyl)-isoxazol-5-ylmethyl]-2-furan-2-yl-5H-imidazo[4,5-d]pyridazine], the inhibition at 10 µM is 66.3%.
As for `CC(C)(C)c1ccc(-c2cc(Cn3cc4nc(-c5ccccc5F)nc-4cn3)on2)cc1` [Compound 283, 5-[3-(4-tert-Butyl-phenyl)-isoxazol-5-ylmethyl]-2-(2-fluoro-phenyl)-5H-imidazo[4,5-d]pyridazine], the inhibition at 10 µM turned out to be 66.7%.
For the compound `FC(F)(F)c1ccc(-c2cc(Cn3cc4nc(-c5ccc6[nH]ccc6c5)nc-4cn3)on2)c(C(F)(F)F)c1` [Compound 139, 5-[3-(2,4-Bis-trifluoromethyl-phenyl)-isoxazol-5-ylmethyl]-2-(1H-indol-5-yl)-5H-imidazo[4,5-d]pyridazine], the inhibition at 10 µM is 51.1%.
Consider `COc1ccc(-c2cc(Cn3cc4nc(-c5cccc(F)c5F)nc-4cn3)on2)c(OC(F)(F)F)c1` [Compound 298, 2-(2,3-Difluoro-phenyl)-5-[3-(4-methoxy-2-trifluoromethoxy-phenyl)-isoxazol-5-ylmethyl]-5H-imidazo[4,5-d]pyridazine], for which the inhibition at 10 µM stood at 99.9%.
The same measure, in the same setting: the result for `Cc1ccc(-c2cc(Cn3cc4nc(-c5cccc(F)c5F)nc-4cn3)on2)c(C(F)(F)F)c1` [Compound 304, 2-(2,3-Difluoro-phenyl)-5-[3-(4-methyl-2-trifluoromethyl-phenyl)-isoxazol-5-ylmethyl]-5H-imidazo[4,5-d]pyridazine] reads 99.7%.
